Assay results from PubChem BioAssay AID1549 (Sanford-Burnham Center for Chemical Genomics, 2009).
Calls of active or inactive are those of the source. How the calls were made is not given here.

Target: Influenza A virus M2 proton channel (A/TW/4845/1999 H1N1)
Assay: NMR binding screen, influenza A virus M2 proton channel, Kd (AID 1549)
Conditions: M2 protein

Row | SMILES | Kd
1 | Cc1cc2nc3c(=O)[nH]c(=O)nc-3n(CC(O)C(O)C(O)CO)c2cc1C (stereo not drawn) | > 4 mM (inactive)
2 | CC(=O)N1CCC(NC2CCCCCC2)CC1 | > 4 mM (inactive)
3 | CC(=O)O[C@H]1CC[C@@]2(C)C(CC[C@]3(C)C2C(=O)C=C2C4[C@@H](C)[C@H](C)CC[C@]4(C(=O)O)CC[C@]23C)C1(C)C (stereo partly drawn) | > 4 mM (inactive)
4 | COc1ccc(-c2coc3c(O)c(OC)ccc3c2=O)cc1 | > 4 mM (inactive)
5 | O=C(O)CNC(=O)c1ccccc1 | > 4 mM (inactive)
6 | OCc1ccc(-c2cccs2)s1 | > 4 mM (inactive)
7 | Cc1ccc(N2NC(=O)CC2=O)cc1C | > 4 mM (inactive)
8 | Cc1ccc(CN2C3=NC(=O)CN3c3ccccc32)cc1 | > 4 mM (inactive)
9 | CC(=O)Oc1ccc2c(c1OC(C)=O)OCC1(O)Cc3c(cc(OC(C)=O)c(OC(C)=O)c3OC(C)=O)C21 (stereo not drawn) | > 4 mM (inactive)
10 | COC(=O)C(O)[C@@H]1C2(C)C(=O)[C@@H](CC3=C4CC(=O)O[C@@H](c5ccoc5)[C@]4(C)CCC32)[C@H](OC(C)=O)C1(C)C (stereo partly drawn) | > 4 mM (inactive)
11 | Cc1cc(C)n(CCC(=O)O)n1 | > 4 mM (inactive)
12 | Cc1cc(/C=N/O)nc(=O)[nH]1 | > 4 mM (inactive)
13 | CC(C)CNc1cc(=O)n(C)c(=O)n1C | > 4 mM (inactive)
14 | Cn1cnc2c(=O)[nH]cc([N+](=O)[O-])c21 | > 4 mM (inactive)
15 | O=C(O)C1COc2ccccc2O1 (stereo not drawn) | > 4 mM (inactive)
16 | CC(C)CCCC(C)C1CCC2C3C[C@@H](O)[C@@]4(O)C[C@@H](O)CC[C@]4(C)C3CC[C@]12C (stereo partly drawn) | > 4 mM (inactive)
17 | Cc1occc1C(=O)Nc1ccc2c(c1)OCO2 | > 4 mM (inactive)
18 | COC(=O)c1ccc2nccnc2c1 | > 4 mM (inactive)
19 | CC(C)=CCc1c2c(c3occ(-c4ccc(O)cc4)c(=O)c3c1O)C=CC(C)(C)O2 | > 4 mM (inactive)
20 | CC(=O)NN1C(=O)c2cccc3cccc(c23)C1=O | > 4 mM (inactive)
21 | Cc1cc(C)n2nc(C(=O)Nc3cccnc3)nc2n1 | > 4 mM (inactive)
22 | Cc1cc(=O)oc2c1c(C)nn2CN1CCN(C)CC1 | > 4 mM (inactive)
23 | CC1CCCN(C/C(O)=C(\C#N)c2nc3ccccc3[nH]2)C1 (stereo not drawn) | > 4 mM (inactive)
24 | CC(C)(OC(=O)c1ccccc1)[C@@H]1Cc2cc3ccc(=O)oc3cc2O1 | > 4 mM (inactive)

Row | SMILES | Kd
25 | Nc1ccc2c(c1)OCCO2 | > 4 mM (inactive)
26 | NC(=O)CSc1nnc2ccc(-c3ccccn3)nn12 | > 4 mM (inactive)
27 | NC12CC3CC(C1)CC(O)(C3)C2 | > 4 mM (inactive)
28 | Cc1sc2nc(-c3ccco3)oc(=O)c2c1C | > 4 mM (inactive)
29 | O=C(O)CCC1=C2c3ccccc3CCN2C(=O)CC1 | > 4 mM (inactive)
30 | NC(=O)c1ccsc1NC(=O)C1=COCCO1 | > 4 mM (inactive)
31 | O=C(O)CSCc1c(F)cccc1Cl | > 4 mM (inactive)
32 | O=C(O)c1cccc2nsnc12 | > 4 mM (inactive)
33 | Nc1ccccc1N1CCOCC1 | > 4 mM (inactive)
34 | CC(=O)NC1=C(N(C)C)C(=O)c2ccccc2C1=O | > 4 mM (inactive)
35 | O=C1C2C3CCC(O3)C2C(=O)N1c1cccc(F)c1 (stereo not drawn) | > 4 mM (inactive)
36 | OCc1ccc(CN2CCOCC2)cc1 | > 4 mM (inactive)
37 | CC(=O)Nc1ccc2c(C)cc(=O)[nH]c2c1 | > 4 mM (inactive)
38 | Cc1ccc(N2C(=O)CC(Sc3ncn[nH]3)C2=O)cc1 (stereo not drawn) | > 4 mM (inactive)
39 | CC1=C(C(N)=O)C(c2ccco2)C(C(N)=O)=C(C)N1 | > 4 mM (inactive)
40 | O=c1nc(N2CCCCC2)nc2n1CCO2 | > 4 mM (inactive)
41 | CCOC(=O)C1CCN(c2ncnc3nc[nH]c23)CC1 | > 4 mM (inactive)
42 | COc1c(F)c(F)c(-c2csc(N)n2)c(F)c1F | > 4 mM (inactive)
43 | CC(C)Oc1ccc(NC(N)=O)cc1 | > 4 mM (inactive)
44 | CCC(=O)Nc1ccc(-c2nn3c(C)nnc3s2)cc1 | > 4 mM (inactive)
45 | Cc1occc1C(=O)Nc1ccc2c(c1)CCC2 | > 4 mM (inactive)
46 | CCOC(=O)c1c(C)cc(O)c(C=O)c1O | > 4 mM (inactive)
47 | CCSc1n[nH]c(=O)[nH]c1=O | > 4 mM (inactive)
48 | NCCCCN=C(N)N | > 4 mM (inactive)

Row | SMILES | Kd
49 | O=C(NCc1cccs1)c1ccc2c(c1)OCCO2 | > 4 mM (inactive)
50 | COCc1nc(-c2cc(Br)ccc2OC)no1 | > 4 mM (inactive)
51 | COc1ccc2ccc(=O)oc2c1 | > 4 mM (inactive)
52 | Cc1ccc(NC(=O)C(=O)Nc2ccccn2)cc1 | > 4 mM (inactive)
53 | O=C(O)C1(O)C[C@@H](O)C(O)[C@H](O)C1 (stereo partly drawn) | > 4 mM (inactive)
54 | Cn1cnc2ccc([N+](=O)[O-])cc2c1=O | > 4 mM (inactive)
55 | OCC1CN(Cc2ccccc2)CCO1 (stereo not drawn) | > 4 mM (inactive)
56 | CCn1cnc2cc([N+](=O)[O-])ccc2c1=O | > 4 mM (inactive)
57 | COc1cccc(O)c1O | > 4 mM (inactive)
58 | O=C1CCC(=O)N1c1ccc(O)cc1 | > 4 mM (inactive)
59 | C=C[C@@](C)(O)CCC1C(=C)C[C@H](O)C2C(C)(C)CCCC12C (stereo partly drawn) | > 4 mM (inactive)
60 | COC(=O)/C(C)=C\CC12OC(C)(C)C3CC(C=C4C(=O)c5c(OC)c6c(c(CC=C(C)C)c5OC431)OC(C)(CCC=C(C)C)C=C6)C2=O (stereo not drawn) | > 4 mM (inactive)
61 | COc1ccc(N/C(N)=N\c2nc(C)cc(C)n2)cc1 | > 4 mM (inactive)
62 | CC1(C)CC23C(=O)CCC(O)C2(C)CCC13 (stereo not drawn) | > 4 mM (inactive)
63 | Cn1[nH]c(C(F)(F)F)cc1=O | > 4 mM (inactive)
64 | Cc1ccc(-c2c(C)n([O-])c(C)c(C)[n+]2=O)cc1 | > 4 mM (inactive)
65 | O=C(O)CN(CCCc1ccccc1)CC(=O)O | > 4 mM (inactive)
66 | CC(C)c1c(O)ccc2c1CCC1[C@@](C)(C=O)CCC[C@]21C (stereo partly drawn) | > 4 mM (inactive)
67 | COc1ccc2c(=O)c(CC(=O)O)coc2c1 | > 4 mM (inactive)
68 | O=C1COc2ccccc2C(=O)N1 | > 4 mM (inactive)
69 | COc1cc(C(C)=O)ccc1OCC(O)Cn1ccnc1 (stereo not drawn) | > 4 mM (inactive)
70 | CC(=O)c1sc2nc(N)nn2c1C | > 4 mM (inactive)
71 | O=C1CC(=O)N(Cc2ccco2)C(=S)N1 | > 4 mM (inactive)
72 | CN(c1ccccc1C(=O)N1CCCC1)S(C)(=O)=O | > 4 mM (inactive)

Row | SMILES | Kd
73 | CSc1ccc(/C=N/n2c(C)nnc2C)cc1 | > 4 mM (inactive)
74 | Cc1c(C(=O)Nn2cnnc2)oc2ccccc12 | > 4 mM (inactive)
75 | COc1ccccc1NS(=O)(=O)c1c[nH]c(=O)[nH]c1=O | > 4 mM (inactive)
76 | Cc1[nH]c2ccccc2c1Cc1n[nH]c(=S)n1C | > 4 mM (inactive)
77 | Cc1ccccc1NC(=O)c1ocnc1C | > 4 mM (inactive)
78 | Nc1ccc(-c2csnn2)cc1 | > 4 mM (inactive)
79 | CCC(CO)NC(=O)c1snnc1C (stereo not drawn) | > 4 mM (inactive)
80 | COc1ccc(-c2cc(=O)c3c(O)cc(O)c(-c4cc(-c5cc(=O)c6c(O)cc(O)cc6o5)ccc4OC)c3o2)cc1 | > 4 mM (inactive)
81 | O=C(O)C1CC(=O)N(Cc2ccco2)C1 (stereo not drawn) | > 4 mM (inactive)
82 | CC(=O)Nc1ccc(S(=O)(=O)NC(N)=O)cc1 | > 4 mM (inactive)
83 | Cc1nc2ccccc2c(=O)n1NC(=O)Nc1ccccc1 | > 4 mM (inactive)
84 | O=C1c2cccnc2C(=O)N1Cc1ccco1 | > 4 mM (inactive)
85 | NC(=O)CNC(=O)c1ccccc1 | > 4 mM (inactive)
86 | NCc1cccc(-n2cccc2)c1 | > 4 mM (inactive)
87 | Nc1ccc2c(c1)OCO2 | > 4 mM (inactive)
88 | NC(=O)c1cccnc1Oc1ccccc1 | > 4 mM (inactive)
89 | CC(=O)CC1(O)C(=O)Nc2ccccc21 (stereo not drawn) | > 4 mM (inactive)
90 | Cn1cc(Cl)c(C(=O)Nc2ccncc2)n1 | > 4 mM (inactive)
91 | Cc1ccc(C)n1CCN1CCNCC1 | > 4 mM (inactive)
92 | CN1CN(Cc2ccccc2)CN/C1=N/[N+](=O)[O-] | > 4 mM (inactive)
93 | NC(=O)C1CCN(CN2C(=O)c3ccccc3C2=O)CC1 | > 4 mM (inactive)
94 | OC1(c2ccc(Cl)cc2)CCNCC1 | > 4 mM (inactive)
95 | Cc1ccccc1NC(=O)/C=C\C(N)=O | > 4 mM (inactive)
96 | Cc1nn2c3ccccc3nc2n(Cc2ccccc2)c1=O | > 4 mM (inactive)

Row | SMILES | Kd
97 | Cc1ccc(SCc2nc(-c3cccnc3)no2)cc1 | > 4 mM (inactive)
98 | O=C(c1ccccc1)N1CCNCC1 | > 4 mM (inactive)
99 | CCn1cnc(C(=O)NC)c1C(=O)NC | > 4 mM (inactive)
100 | O=C(Cn1cnc2ccccc2c1=O)N1CCOCC1 | > 4 mM (inactive)
101 | CC1(C)C2CC[C@]3(C)C(C(=O)C=C4[C@@H]5C[C@@](C)(C(=O)O)CC[C@]5(C)CC[C@]43C)[C@@]2(C)CC[C@@H]1O (stereo partly drawn) | > 4 mM (inactive)
102 | COc1cc(S(=O)(=O)Nc2cccnc2)ccc1F | > 4 mM (inactive)
103 | O=c1c2ccccc2nc2n1CCC2O (stereo not drawn) | > 4 mM (inactive)
104 | Cc1nnc(N2CCN(c3ccccc3)CC2)[nH]c1=O | > 4 mM (inactive)
105 | O=C1Nc2ccccc2C1(O)Cc1ccncc1 (stereo not drawn) | > 4 mM (inactive)
106 | COC(=O)C[C@H]1C(C)(C)C(OC(C)=O)[C@]2(O)C=C3C(CC[C@]4(C)C3CC(=O)O[C@H]4c3ccoc3)C1(C)C2=O (stereo partly drawn) | > 4 mM (inactive)
107 | CC(=O)Nc1ccc(-c2ccc3nncn3n2)cc1 | > 4 mM (inactive)
108 | Oc1cccc(N2CCOCC2)c1 | > 4 mM (inactive)
109 | OCc1ccc(-n2cncn2)cc1 | > 4 mM (inactive)
110 | O=C(NCC1CCNCC1)c1ccncc1 | > 4 mM (inactive)
111 | NC(=O)Cn1nc(-c2ccc(F)cc2)ccc1=O | > 4 mM (inactive)
112 | CC(=O)OC1CCC2(C)C(=CC=C3C2CCC2(C)C3CCC2C(C)/C=C/C(C)C(C)C)C1(C)C (stereo not drawn) | > 4 mM (inactive)
113 | Cc1scc(C(=O)Nn2cnnc2)c1-c1ccccc1 | > 4 mM (inactive)
114 | O=C(Nc1nnc(-c2cccnc2)o1)c1ccccc1F | > 4 mM (inactive)
115 | COc1ccccc1NC(N)=S | > 4 mM (inactive)
116 | Nc1cccc(F)c1-c1ncon1 | > 4 mM (inactive)
117 | CCn1cnc2cc(NCc3ccncc3)ccc21 | > 4 mM (inactive)
118 | CCOc1ccc(Cl)cc1S(=O)(=O)N1CCCC1 | > 4 mM (inactive)
